Reference: ChEMBL document CHEMBL1157890, “Bioactivity-guided isolation of mosquitocidal constituents from the rhizomes of Plumbago capensis Thunb” (2010)
Converted amounts (≈) assume the structure as drawn. The source made the active and inactive calls. The calls are words filed in the database; no cut-off is given here.

Experiments:
Aedes aegypti [1] = assay: Larvicidal activity against Aedes aegypti fourth instar larvae at 60 ug/ml after 24 hrs; format: functional, organism-based
Aedes aegypti [2] = assay: Larvicidal activity against Aedes aegypti fourth instar larvae after 24 hrs; format: functional; conditions: for LC50: Aedes aegypti, 24 h
Aedes aegypti [3] = assay: Larvicidal activity against Aedes aegypti fourth instar larvae at 20 ug/ml after 24 hrs; format: functional
Aedes aegypti [4] = assay: Larvicidal activity against Aedes aegypti fourth instar larvae at 6.5 ug/ml after 24 hrs; format: functional

Compound | Activity (Aedes aegypti [1]) | LC90 (Aedes aegypti [2]) [µg/mL] | LC50 (Aedes aegypti [2]) [µg/mL] | Activity (Aedes aegypti [3]) [%] | Activity (Aedes aegypti [4]) [%]
C[C@H]1C[C@H](O)c2cccc(O)c2C1=O | inactive | – | – | – | –
CC1=CC(=O)c2c(ccc(-c3cc(O)c4c(c3C)C(=O)CCC4=O)c2O)C1=O | – | 42.72 (≈ 114 µM) | 31.2 (≈ 82.9 µM) | – | –
CC1=CC(=O)c2c(ccc(C3=C(C)C(=O)c4cccc(O)c4C3=O)c2O)C1=O | inactive | – | – | – | –
CC1=CC(=O)c2c(ccc(O)c2O)C1=O | – | 19.28 (≈ 94.4 µM) | 13.6 (≈ 66.8 µM) | 100 | –
C=C(C)[C@H]1Cc2c(ccc3c2O[C@@H]2COc4cc(OC)c(OC)cc4[C@@H]2C3=O)O1 [ROTENONE] | – | 25 (≈ 63.4 µM) | 6.2 (≈ 15.7 µM) | – | –
COC1=C(C)C(=O)c2cccc(O)c2C1=O | – | 55.72 (≈ 255 µM) | 31.5 (≈ 144 µM) | – | –
CC1=CC(=O)c2c(O)cccc2C1=O [PLUMBAGIN] | – | 6.56 (≈ 34.9 µM) | 5.43 (≈ 28.9 µM) | – | 100
C[C@H]1CC(=O)c2c(O)cccc2[C@H]1O [ISOSHINANOLONE] | – | 4.1 (≈ 21.3 µM) | 1.26 (≈ 6.56 µM) | – | –
CC1=CC(=O)c2c(O)ccc(-c3ccc(O)c4c3C(=O)C(C)=CC4=O)c2C1=O [MARITINONE] | – | 53.87 (≈ 144 µM) | 40.7 (≈ 109 µM) | – | –
